Laboratory results from patent US10517889B2, “Modulators of SMAD7 expression” (Ionis Pharmaceuticals, Inc., priority 2017, dated 2019).
Strand notation (5' to 3'): a small letter for the sugar, then the base; units joined by * are phosphorothioate-linked, units joined directly phosphodiester-linked; [ ] holds rarer units or linkages, { } end groups; capitals alone tell only the bases. e = 2'-O-(2-methoxyethyl) (MOE); [5mC] = 5-methylcytosine; d = 2'-deoxy (DNA)

Test system: human SMAD7 mRNA
Experiment: Antisense inhibition of human SMAD7 mRNA expression in Hep3B cells by 5-10-5 MOE gapmers, single concentration, electroporation, RT-PCR (Example 1, Study 1 and 2)
Type: cell-based
Conditions: for % Inhibition: Study 2, electroporation with 15,000 nM antisense oligonucleotide; for % Inhibition of SMAD7 mRNA: electroporation with 15,000 nM antisense oligonucleotide (Study 2)
Procedure: Antisense oligonucleotides were designed to target human SMAD7 mRNA and were tested for their effects on SMAD7 mRNA expression in vitro. Cultured Hep3B cells at a density of 20,000 cells per well were transfected using electroporation with antisense oligonucleotide ION 483663 (a 5-10-5 MOE gapmer), the sequence of which overlaps with ION 28453 (a 4-10-4 MOE gapmer) was included in these assays for comparison. ION 28453 has been previously disclosed in U.S. Pat. No. 6,159,697). After a treatment period of approximately 24 hours, RNA was isolated from the cells and SMAD7 mRNA levels were measured by quantitative real-time PCR. Primer probe set RTS5062 (forward sequence […], designated herein as SEQ ID NO: 11; reverse sequence […], designated herein as SEQ ID NO: 12; probe sequence […], designated herein as SEQ ID NO: 13) was used to measure human SMAD7 mRNA levels. SMAD7 mRNA levels were adjusted according to total RNA content, as measured by RIBOGREEN®. Results are presented as percent inhibition of SMAD7 mRNA expression, relative to untreated control cells.
The newly designed chimeric antisense oligonucleotides in the Tables below were designed as 5-10-5 MOE gapmers. The gapmers are 20 nucleosides in length, wherein the central gap segment comprises of ten 2′-deoxynucleosides and is flanked by wing segments on the 5′ direction and the 3′ direction comprising five nucleosides each. Each nucleoside in the 5′ wing segment and each nucleoside in the 3′ wing segment has a 2′-MOE modification. The internucleoside linkages throughout each gapmer are phosphorothioate (P═S) linkages. All cytosine residues throughout each gapmer are 5-methylcytosines.
“Start site” indicates the 5′-most nucleoside to which the gapmer is targeted in the human gene sequence. “Stop site” indicates the 3′-most nucleoside to which the gapmer is targeted human gene sequence.
Cultured Hep3B cells at a density of 20,000 cells per well were transfected using electroporation with 5,000 nM antisense oligonucleotide.
Cultured Hep3B cells at a density of 20,000 cells per well were transfected using electroporation with 15,000 nM antisense oligonucleotide. The antisense oligonucleotides were tested in a series of experiments that had similar culture conditions as described below.
Some of the oligonucleotides presented were complementary to SMAD7 mRNA sequences RefSeqNo. NM_001190821.1 (designated herein as SEQ ID NO: 3) or RefSeqNo. NM_001190822.1 (designated herein as SEQ ID NO: 4), and are presented in a separate table shown below.

[1] = 5-10-5 MOE gapmers targeting SEQ ID NO: 1 and 2
[2] = electroporation, 15,000 nM antisense oligonucleotide (Study 2), 5-10-5 MOE gapmers targeting SEQ ID NO: 1 and 2
[3] = electroporation, 15,000 nM, approximately 24 hours, relative to untreated control cells, gapmers targeting SEQ ID NO: 1 and 2

| Substance | % Inhibition [1] | % inhibition of SMAD7 mRNA expression [2] | further results |
| --- | --- | --- | --- |
| 771377 (antisense eT*eA*eA*eG*e[5mC]*dA*d[5mC]*dG*d[5mC]*dT*d[5mC]*dT*dA*dA*dA*e[5mC]*eA*eG*e[5mC]*eA) [compound 771377] | 0% |  |  |
| 771378 (antisense eA*eT*e[5mC]*eT*eT*dT*dA*dA*dG*d[5mC]*dA*d[5mC]*dG*d[5mC]*dT*e[5mC]*eT*eA*eA*eA) [compound 771378] | 22% |  |  |
| 771379 (antisense eG*eA*eT*e[5mC]*e[5mC]*dA*dT*d[5mC]*dT*dT*dT*dA*dA*dG*d[5mC]*eA*e[5mC]*eG*e[5mC]*eT) [compound 771379] |  | 0% | % Inhibition of SMAD7 mRNA [1]: 21% |
| 771380 (antisense eA*e[5mC]*e[5mC]*eA*eA*dG*dA*dT*d[5mC]*d[5mC]*dA*dT*d[5mC]*dT*dT*eT*eA*eA*eG*e[5mC]) [compound 771380] |  | 0% |  |
| 771381 (antisense eA*eA*eA*eA*e[5mC]*dA*d[5mC]*d[5mC]*dA*dA*dG*dA*dT*d[5mC]*d[5mC]*eA*eT*e[5mC]*eT*eT) [compound 771381] |  | 0% |  |
| 771382 (antisense eA*eA*eA*eT*eA*dA*dA*dA*dA*d[5mC]*dA*d[5mC]*d[5mC]*dA*dA*eG*eA*eT*e[5mC]*e[5mC]) [compound 771382] | 0% |  | % inhibition of SMAD7 mRNA expression (electroporation, 5,000 nM, approximately 24 hours, relative to untreated control cells, gapmers targeting SEQ ID NO: 1 and 2): 55% |
| 771383 (antisense eT*eA*e[5mC]*eA*e[5mC]*dA*dA*dA*dT*dA*dA*dA*dA*dA*d[5mC]*eA*e[5mC]*e[5mC]*eA*eA) [compound 771383] | 0% |  |  |
| 771384 (antisense eT*eG*e[5mC]*eT*eG*dT*dG*dG*dA*dT*dT*dT*dG*dA*dA*eA*eA*eG*eG*eG) [compound 771384] |  |  | % inhibition of SMAD7 mRNA expression [3]: 18% |
| 771385 (antisense e[5mC]*eA*eG*eT*e[5mC]*dT*dG*d[5mC]*dT*dG*dT*dG*dG*dA*dT*eT*eT*eG*eA*eA) [compound 771385] | 25% |  |  |
| 771388 (antisense eG*e[5mC]*eG*e[5mC]*e[5mC]*d[5mC]*dT*dG*d[5mC]*dG*d[5mC]*dG*dG*d[5mC]*dT*e[5mC]*eT*e[5mC]*e[5mC]*eG) [compound 771388] |  | 31% |  |
| 771389 (antisense e[5mC]*eA*e[5mC]*e[5mC]*e[5mC]*d[5mC]*dG*d[5mC]*dG*d[5mC]*dG*dG*d[5mC]*d[5mC]*d[5mC]*eG*e[5mC]*eG*e[5mC]*e[5mC]) [compound 771389] |  | 18% |  |
| 771391 (antisense eT*e[5mC]*e[5mC]*eG*eG*d[5mC]*dT*dG*d[5mC]*d[5mC]*d[5mC]*d[5mC]*dA*d[5mC]*d[5mC]*e[5mC]*e[5mC]*eG*e[5mC]*eG) [compound 771391] | 16% |  |  |
| 771392 (antisense e[5mC]*eT*e[5mC]*e[5mC]*eG*dG*d[5mC]*dT*dG*d[5mC]*d[5mC]*d[5mC]*d[5mC]*dA*d[5mC]*e[5mC]*e[5mC]*e[5mC]*eG*e[5mC]) [compound 771392] |  |  | % inhibition of SMAD7 mRNA expression [3]: 28% |
| 771393 (antisense eG*e[5mC]*eT*e[5mC]*e[5mC]*dG*dG*d[5mC]*dT*dG*d[5mC]*d[5mC]*d[5mC]*d[5mC]*dA*e[5mC]*e[5mC]*e[5mC]*e[5mC]*eG) [compound 771393] | 0% |  |  |
| 771394 (antisense e[5mC]*eG*e[5mC]*eT*e[5mC]*d[5mC]*dG*dG*d[5mC]*dT*dG*d[5mC]*d[5mC]*d[5mC]*d[5mC]*eA*e[5mC]*e[5mC]*e[5mC]*e[5mC]) [compound 771394] | 10% |  |  |
| 771395 (antisense eG*e[5mC]*eG*e[5mC]*eT*d[5mC]*d[5mC]*dG*dG*d[5mC]*dT*dG*d[5mC]*d[5mC]*d[5mC]*e[5mC]*eA*e[5mC]*e[5mC]*e[5mC]) [compound 771395] |  | 0% | % Inhibition of SMAD7 mRNA [1]: 34% |
| 771396 (antisense e[5mC]*eT*eG*e[5mC]*eG*d[5mC]*dT*d[5mC]*d[5mC]*dG*dG*d[5mC]*dT*dG*d[5mC]*e[5mC]*e[5mC]*e[5mC]*eA*e[5mC]) [compound 771396] |  | 48% |  |
